{"source": "patent US10328048B2", "about": "“Cafestol for treating diabetes” (Aarhus Universitet, priority 2014, dated 2019)", "key": {"INS-1E cells [1]": {"system": "INS-1E cells", "test": "Acute insulin secretion from INS-1E cells", "type": "cell-based, rat", "set-up": "Insulin secretion, Mean: unit not given here", "conditions": "for Insulin secretion, Mean: 16.7 mM glucose, 60 min", "protocol": "INS-1E cells were seeded onto 24 well plates before incubation experiments. At the day of the experiment the buffer was changed to a modified Krebs-Ringer-buffer and the cells were preincubated in the same buffer for 60 min. […]"}, "INS-1E cells [2]": {"system": "INS-1E cells", "test": "Chronic (72 hours) insulin secretion from INS-1E cells", "type": "cell-based, rat", "set-up": "unit not given here", "protocol": "INS-1E cells were seeded onto 24 well plates and incubated for 72 hours in RPMI 1640 supplemented with cafestol. After 72 hours the buffer was changed to a modified Krebs Ringer buffer and the cells were incubated for 60 min at low (3.3 mM) and high (16.7 mM) glucose. Hereafter the medium was removed for later insulin analysis using a sensitive rat insulin kit from Linco."}, "[3]": {"system": "Human skeletal muscle cells", "test": "Acute glucose uptake in human skeletal muscle cell line", "type": "cell-based", "conditions": "100 nM insulin, 15 minutes", "protocol": "Human skeletal muscle cells were seeded in 24 wells, ([…] cells/well) containing 1 mL growth medium (Promocell, Heidelberg, Germany). Once 70-90% confluence was reached, the growth medium was replaced by 1 mL differentiation medium (Promocell, Heidelberg, Germany). This medium was changed every 2nd day for two weeks until multinucleated syncytia was visible in microscope. Cells were washed twice with PBS. 300 μL of an alternatively modified-Krebs Ringer Buffer (containing 0.1% BSA with 0.1 mM glucose, 1.5 μCi deoxy-d-glucose 2-[1,2-3H(M)] (Perkin Elmer, 2740 Skovlunde, Denmark) and 100 nM insulin was put in each well. Five types of solutions were prepared: one with […] cafestol or rosiglitazone (control), a second with a 10^−6 M cafestol, a third with a 10^−10 M cafestol, a fourth with a 10^−12 M cafestol, and a fifth with a 10^-8 M rosiglitazone. Cells were kept on ice while adding medium. After 15 minutes of incubation at 37° C., 5.0% CO2, cells were washed twice with the modified-Krebs Ringer Buffer supplemented with 0.1% BSA and 50 mM glucose, stopping the incubation and glucose uptake. Hereafter, 0.2 mL 0.1 M NaOH was added to each well for a 30 minute room temperature incubation. 0.1 mL was transferred from each well to a 24 well counting plate (Wallac Oy, Turku, Finland). After adding 0.9 mL Hisafe II scintillator (Perkin Elmer, 2740 Skovlunde, Denmark), plates were stored in the dark for 12 hours before counted using a Trilux Micro Beta Counter (Wallac Oy, Turku, Finland). “Counts per minute” is a direct measure of glucose uptake."}, "KKAy mice": {"system": "KKAy mice", "test": "10 week dietary intervention study in diabetic KKAy mice", "type": "in vivo", "conditions": "10 weeks; for Fasting plasma glucose compared to the control group: in food pellets", "protocol": "(§1) The effects of cafestol were investigated in a 10 week dietary intervention study in a type 2 diabetic animal model. Five weeks old male KKAy mice were randomly assigned to either of three intervention groups (n=12 per group), i.e. 1) Control (no cafestol added), 2) supplementation with 0.382 mg/day of cafestol/kg mice, and 3) supplementation with 1.146 mg/day of cafestol/kg mice. The cafestol was added to food pellets daily. At the beginning of the study (week 0) fasting blood glucose, insulin and lipids (total cholesterol, LDL, HDL and triglycerides) were measured. Every 2nd week fasting blood glucose, body weight and food intake was measured. At the end of the intervention (week 10) fasting blood glucose, insulin, glucagon and lipids (total cholesterol, LDL-cholesterol, HDL-cholesterol) were measured. The pancreas was removed and treated with collagenase and subsequently, the effects on insulin secretory capacity was studied in isolated islets of Langerhans. Furthermore, gene expression levels of key regulatory genes in liver, fat and muscle tissues were measured using RT-PCR."}, "[4]": {"system": "isolated islets of Langerhans", "test": "Insulin secretion experiment with isolated islets of Langerhans from KKAy mice after 10 weeks intervention", "type": "in vivo", "protocol": "as §1"}, "INS-1E cells [5]": {"system": "INS-1E cells", "test": "Chronic (72 hours) insulin secretion from INS-1E cells", "type": "cell-based, rat", "conditions": "low glucose level (FIG. 2)"}, "[6]": {"conditions": "healthy ileostomy volunteers, cited from earlier work"}, "[7]": {"conditions": "oral 1.5 mg/mouse, cited from earlier work"}}, "note": "“Also recorded” adds a separate entry of the source.", "data": [{"molecule": "C[C@@]12CCc3occc3[C@H]1CC[C@@]13C[C@@H](CC[C@H]12)[C@@](O)(CO)C3", "note": "[Cafestol]", "values": [{"measurement": "Insulin secretion, Mean", "setting": "INS-1E cells [1]; cafestol 10^−6 M", "value": 0.9013}, {"measurement": "Insulin secretion, Mean", "setting": "INS-1E cells [1]; cafestol 10^−8 M", "value": 0.8682}, {"measurement": "Insulin secretion, Mean", "setting": "INS-1E cells [1]; cafestol 10^−10 M", "value": 0.8715}, {"measurement": "Insulin secretion, Mean", "setting": "INS-1E cells [1]; cafestol 10^−12 M", "value": 0.8261}, {"measurement": "Insulin secretion (change vs glucose alone)", "setting": "INS-1E cells [1]; high glucose, concentrations ranging from 10^−10 M to 10^−6 M", "value": "significant increase"}, {"measurement": "Insulin secretion, Mean", "setting": "INS-1E cells [2]; 3.3 mM glucose, 72 hours incubation with cafestol 10^−8 M", "value": 0.7482}, {"measurement": "Insulin secretion, Mean", "setting": "INS-1E cells [2]; 3.3 mM glucose, 72 hours incubation with cafestol 10^−8 M, listed as cafestol", "value": "stimulatory effect"}, {"measurement": "Insulin secretion, Mean", "setting": "INS-1E cells [2]; 3.3 mM glucose, 72 hours incubation with cafestol 10^−10 M", "value": 0.5853}, {"measurement": "Insulin secretion, Mean", "setting": "INS-1E cells [2]; 3.3 mM glucose, 72 hours incubation with cafestol 10^−10 M, listed as cafestol", "value": "neutral effect"}, {"measurement": "Insulin secretion, Mean", "setting": "INS-1E cells [2]; 3.3 mM glucose, 72 hours incubation with cafestol 10^−12 M", "value": 0.4999}, {"measurement": "Insulin secretion, Mean", "setting": "INS-1E cells [2]; 3.3 mM glucose, 72 hours incubation with cafestol 10^−12 M, listed as cafestol", "value": "significantly decreased"}, {"measurement": "Insulin secretion, Mean", "setting": "INS-1E cells [2]; 16.7 mM glucose, 72 hours incubation with cafestol 10^−8 M", "value": 1.661}, {"measurement": "Insulin secretion, Mean", "setting": "INS-1E cells [2]; 16.7 mM glucose, 72 hours incubation with cafestol 10^−8 M, listed as cafestol", "value": "significant increase"}, {"measurement": "Insulin secretion, Mean", "setting": "INS-1E cells [2]; 16.7 mM glucose, 72 hours incubation with cafestol 10^−10 M", "value": 1.322}, {"measurement": "Insulin secretion, Mean", "setting": "INS-1E cells [2]; 16.7 mM glucose, 72 hours incubation with cafestol 10^−10 M, listed as cafestol", "value": "significant increase"}, {"measurement": "Insulin secretion, Mean", "setting": "INS-1E cells [2]; 16.7 mM glucose, 72 hours incubation with cafestol 10^−12 M", "value": 0.9279}, {"measurement": "Glucose uptake, Counts per minute (± in SEM)", "setting": "[3]; 10^−8 M", "value": "157.2 ± 2.318", "unit": "Counts per minute"}, {"measurement": "Glucose uptake, Counts per minute (± in SEM)", "setting": "[3]; 10^−8 M, listed as cafestol", "value": "significantly increased"}, {"measurement": "Glucose uptake, Counts per minute (± in SEM)", "setting": "[3]; 10^−10 M", "value": "151.0 ± 2.104", "unit": "Counts per minute"}, {"measurement": "Glucose uptake, Counts per minute (± in SEM)", "setting": "[3]; 10^−12 M", "value": "146.3 ± 1.839", "unit": "Counts per minute"}, {"measurement": "Fasting plasma glucagon compared to Control", "setting": "KKAy mice; High cafestol group 1.146 mg/day/kg", "value": "significant decreased"}, {"measurement": "Fasting plasma glucose compared to the control group", "setting": "KKAy mice; high concentration 1.146 mg/day/kg", "value": "significantly decreased; also recorded: decrease fasting plasma glucose significantly"}, {"measurement": "HOMA-IR compared to control group", "setting": "KKAy mice; high dose of cafestol, p=0.03", "value": "significantly reduced; also recorded: significant decrease"}, {"measurement": "Fasting plasma glucose compared to the control group", "setting": "KKAy mice; low concentration 0.382 mg/day/kg", "value": "significantly decreased; also recorded: decrease fasting plasma glucose significantly"}, {"measurement": "HOMA-IR compared to control group", "setting": "KKAy mice; low dose of cafestol", "value": "tendency to be reduced"}, {"measurement": "Glucose sensitivity of islets (insulin secretion) compared to Control", "setting": "[4]; after 10 weeks intervention with cafestol", "value": "more glucose sensitive"}, {"measurement": "Insulin stimulation at low glucose concentration", "setting": "[4]; islets after 10 weeks intervention, low glucose", "value": "not present"}, {"measurement": "Glucagonostatic effect", "setting": "INS-1E cells [5]", "value": "significant glucagonostatic effect"}, {"measurement": "Absorbed from the gastrointestinal tract", "setting": "[6]; estimated from recovery in ileostomy effluent", "value": "approximately 70%"}, {"measurement": "Dose recovered in urine", "setting": "[6]", "value": "approximately 1%"}, {"measurement": "Parent compound as share of activity present in portal blood", "setting": "[7]; 50 min after administration", "value": 70, "unit": "%"}, {"measurement": "Parent compound as share of total radioactivity present in portal blood", "setting": "[7]; two minutes after dosing", "value": 50, "unit": "%"}]}]}
